For assay [1], the system named is inhibitorischen Autorezeptoren in hippocampalem Gewebe. The assay is described as follows: Transmitter release study: in vitro acetylcholine release from electrically stimulated hippocampal slices, antagonism of carbachol. The class given is cell-based, Ratten. Particulars: rat hippocampal slices 0,4 mm, preloaded with ³H-Cholin, electrical stimulation 3 Hz, agonist Carbachol. From the text:
B. Transmitter Release Studien
Die Versuche zur in-vitro Freisetzung von Acetylcholin aus hippocampalen Gewebeschnitten wurden in Analogie zu Anord nungen durchgeführt, die für die Freisetzung von 5-HT aus Hypothalamus- bzw. Hippocampus-Gewebe beschrieben sind (vgl. M.H. Richards, Naunyn Schmiedeberg's Arch. Pharmacol. 329, 359-366 (1985) und T.J. Feuerstein, G. Hertting und R. Jackisch, Europ. J. Pharmacol. 107, 233-242 (1985)).
Männliche Ratten (Stamm Chbb:Thom, Gewicht 200 bis 300 g) wurden ohne Vorbehandlung dekapitiert; das gesamte Gehirn wurde sofort entnommen und unter Eiskühlung zerlegt. Gemäß den oben beschriebenen Verfahren wurde der Hippocampus in 0,4 mm dicke Schnitte mit Hilfe eines McIlwain-Gewebehackers geschnitten. Die Gewebeschnitte wurden 30 Minuten lang bei 37°C vorincubiert in Gegenwart von 0,05 mM ³H-Cholin in Krebs-Henseleit Puffer der folgenden Zusammensetzung: 120 mM NaCl, 4,8 mM KCl, 1,3 mM CaCl₂, 1,2 mM KH₂PO₄, 1,2 mM MgSO₄ und 25 mM NaHCO₃. Der Puffer enthielt zusätzlich 2 g Glucose und 100 mg EDTA. Der Puffer wurde mit Natronlauge auf einen pH-Wert von 7,4 bei 20°C eingestellt. Alle Lösungen wurden kontinuierlich mit 95 % O₂ und 5 % CO₂ gesättigt. Die Gewebeschnitte wurden daraufhin gespült, jeder Gewebeschnitt wurde jeweils willkürlich auf 12 Superfusionseinheiten gegeben und mit der Pufferlösung bei 37°C bei einer Fließgeschwindigkeit von 1 ml/min überspült. Die Gewebeschnitte wurden jeweils von einem Polypropylennetzwerk zwischen zwei Platinelektroden gehalten. Nach 50-minütiger Überspülung wurden 4-Minuten-Fraktionen des Superfusats über eine gesamte Zeitdauer von 92 Minuten gesammelt. Die Gewebeschnitte wurden zweimal elektrisch stimuliert, und zwar 60 Minuten (S1) und 100 Minuten (S2) nach Beginn der Superfusion. Dabei wurden Rechteckimpulse von 2 ms Dauer und mit einer Frequenz von 3 Hz 100 Sekunden lang bei 5 V/cm und 24 mA mittels eines HSE Stimulators II der Firma Hugo Sachs Elektronik, Hugstetten, West-Deutschland, verabreicht. Die zu prüfenden Substanzen wurden dem Puffer ab 20 Minuten vor dem Zeitpunkt S2 zusammen mit dem Agonisten (Carbachol) beigefügt. Am Ende wurden die Gewebeschnitte aus den Kammern entfernt und zur Bestimmung des verbliebenen Tritiums solubilisiert. […]

The target of assay [2] is muscarinische Rezeptoren der Pia mater des Rindes. The assay is described as follows: Inhibition of 3H-NMS binding to muscarinic receptors in bovine pia mater vessel homogenate. Also on record: species or system Rind. Particulars: Hemmung der ³H-NMS-Bindung, 0,3 nM [³H]NMS, 45 min, room temperature. The procedure: A. Bindung verschiedener muskarinischer Antagonisten an Rezeptoren der Pia mater des Rindes
Die Pia-Gefäße von Rinder-Hirnen, erhalten vom lokalen Schlachthof, wurden präpariert und von Blutresten gereinigt. Je 0,5 g-Portionen wurden bei -80°C bis zur weiteren Verwendung gelagert. Zur Homogenatgewinnung wurden 0,5 g Pia-Gefäße mittels eines Gewebehackers zerkleinert, in 60 ml HEPES-Puffer (20 mM HEPES, 10 mM MgCl₂, 100 mM NaCl, pH 7,50) aufgenommen, mit einem Ultra-Turrax homogenisiert und 20 min. bei 0°C mit 48000 x g zentrifugiert. Das Pellet wurde erneut mit einem Ultra-Turrax homogenisiert, durch Mull filtriert und mit HEPES-Puffer auf eine Verdünnung von 1:140 bezogen auf das Feuchtgewicht der Gefäße verdünnt.
0,3 nM [³H]NMS (³H-N-Methylscopolamin) und steigende Konzentrationen des Antagonisten wurden mit dem Homogenat in einem Gesamtvolumen von 0,52 ml für 45 min. bei Raumtemperatur inkubiert. Der Inkubationsansatz wurde mit Hilfe eines Scatron Cell Harvesters über Glasfaser-Filtermatten filtriert und zweimal mit eiskalter physiologischer Kochsalzlösung gewaschen. Die Filter-gebundene Radioaktivität wurde in einem Flüssigkeitsszintillationszähler bestimmt. Als unspezifische Bindung wurde die gebundene Radioaktivität in Gegenwart von 10⁻⁶M (-)-Chinuclidinyl-benzilat definiert.

Data on ten molecules can be found in patent EP0402734A2, “Composition for the treatment of application of the central nervous system and to enhance cerebral perfusion” (Dr. Karl Thomae GmbH, priority 1989, dated 1990).

Molecules are shown by their SMILES.

Regarding `CCN(CC)CC1CCCCN1CC(=O)N1c2cc(Cl)ccc2C(=O)Nc2cccnc21` (racemic) [C, (±)-9-Chlor-11-[[2-[(diethylamino)methyl]-1-piperidinyl]acetyl]-5,11-dihydro-6H-pyrido[2,3-b][1,4]benzodiazepin-6-on], the “ACh-Release aus Hippocampus-Gewebe (pA₂)” value in assay [1] is listed as 7,3. For the same molecule, in assay [2], the “-log IC₅₀ (M)” value was 7,5 M.
The like results for `CCN(CC)CC1CCCCN1CC(=O)N1c2ccccc2C(=O)Nc2cccnc21` (single isomer, unassigned; (+)) [A, (+)-11-[[2-[(Diethylamino)methyl]-1-piperidinyl]acetyl]-5,11-dihydro-6H-pyrido[2,3-b][1,4]benzodiazepin-6-on] were, in that order, 7,15 and 7,1 M.
Take `O=C1Nc2cccnc2N(C(=O)CCC#CCN2CCCCC2)c2ccccc21` [B, 5,11-Dihydro-11-[1-oxo-6-(1-piperidinyl)-4-hexin-1-yl]-6H-pyrido[2,3-b][1,4]benzodiazepin-6-on]: in assay [1], the “ACh-Release aus Hippocampus-Gewebe (pA₂)” value is reported as 7,2. Also, the “-log IC₅₀ (M)” value in assay [2] was 6,9 M.
The corresponding values for `CCCN(CCC)CC1CCCCN1CCNC(=O)N1c2ccccc2C(=O)Nc2cccnc21.CS(=O)(=O)O` (centres unmarked) [D, 5,11-Dihydro-11-[[[2-[2-[(dipropylamino)methyl]-1-piperidinyl]ethyl]amino]carbonyl]-6H-pyrido[2,3-b][1,4]benzodiazepin-6-on-methansulfonat] are 8,35 and 7,9 M.
In the case of `O=C1Nc2cccnc2N(C(=O)N2CCCC(CCCN3CCCCC3)C2)c2ccccc21` (centres unmarked) [E, 5,11-Dihydro-11-[[3-[3-(1-piperidinyl)-1-propyl]-1-piperidinyl]carbonyl]-6H-pyrido[2,3-b][1,4]benzodiazepin-6-on], the “ACh-Release aus Hippocampus-Gewebe (pA₂)” value in assay [1] was 9,55. Also, the “-log IC₅₀ (M)” value in assay [2] is reported as 8,8 M.
For the molecule `Cc1scc2c1N(C(=O)CN1CCC(CCCN3CCCCC3)CC1)c1ccccc1NC2=O` [F, 4,9-Dihydro-3-methyl-4-[[4-[3-(1-piperidinyl)-1-propyl]-1-piperidinyl]acetyl]-10H-thieno[3,4-b][1,5]benzodiazepin-10-on], in assay [1], the “ACh-Release aus Hippocampus-Gewebe (pA₂)” value was 7,7. In assay [2], the “-log IC₅₀ (M)” value is listed as 8,6 M.
As to `Cc1scc2c1N(C(=O)CCC#CCN1CCCCCC1)c1ccccc1NC2=O` [H, 4,9-Dihydro-3-methyl-4-[6-(hexahydro-1H-1-azepinyl)-1-oxo-4-hexin-1-yl]-10H-thieno[3,4-b][1,5]benzodiazepin-10-on], in assay [1], the “ACh-Release aus Hippocampus-Gewebe (pA₂)” value is listed as 8,0. Moreover, in assay [2], the “-log IC₅₀ (M)” value is listed as 8,0 M.
Consider `CCN(CC)CC1COCCN1CCCC(=O)N1c2ccccc2C(=O)Nc2cccnc21` (centres unmarked) [I, 11-[4-[3-[(Diethylamino)methyl]-4-morpholinyl]-1-oxo-1-butyl]-5,11-dihydro-6H-pyrido[2,3-b][1,4]benzodiazepin-6-on], for which the “ACh-Release aus Hippocampus-Gewebe (pA₂)” value in assay [1] is on record as 7,5. Moreover, the “-log IC₅₀ (M)” value in assay [2] is listed as 7,7 M.
The corresponding values for `CN(CCC1CCCN1C)CC(=O)N1c2ccccc2C(=O)Nc2cccnc21` (centres unmarked) [K, 5,11-Dihydro-11-[[[2-(1-methyl-2-pyrrolidinyl)ethyl]methylamino]acetyl]-6H-pyrido[2,3-b][1,4]benzodiazepin-6-on] are 8,5 and 8,2 M.
The like results for `CN(CCC1CCCCCN1C)CC(=O)N1c2ccccc2C(=O)Nc2cccnc21` (centres unmarked) [L, 5,11-Dihydro-11-[[[2-(1-methyl-hexahydro-1H-2-azepinyl)ethyl]methylamino]acetyl]-6H-pyrido[2,3-b][1,4]benzodiazepin-6-on] were, in that order, 8,45 and 8,4 M.
